For assay [1], the target named is T1, Recombinant STAT3 protein (STAT3 (G127-I722)) (Homo sapiens, UniProt P40763).
T1 construct: Recombinant STAT3 protein (STAT3 (G127-I722))
Kind of assay: STAT3 Fluorescence Polarization (FP) Assay. The assay is classed as binding. The conditions noted are these: STAT3 (G127-I722) 25 nM, probe 5-FAM-GpYLPQTV-NH2 2 nM, 45-minute incubation; read-out: STAT3 (FP assay IC50 class). The procedure, abridged: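 In this competition FP format, STAT3 residues G127-I722 (25 nM) and 2 nM 5-FAM-GpYLPQTV-NH2 met test compounds for 45 min at room temperature. IC50 values result from fitting mP signal against log concentration by nonlinear regression.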
On the technique in general: Fluorescence polarisation rises when a labelled molecule tumbles more slowly, as on binding a larger partner.

Assay [2] deals with T2, Recombinant STAT6 protein (STAT6 (W123-T658)) (Homo sapiens, UniProt P42226).
T2 construct: Recombinant STAT6 protein (STAT6 (W123-T658))
T2 sequence (P42226 123-658): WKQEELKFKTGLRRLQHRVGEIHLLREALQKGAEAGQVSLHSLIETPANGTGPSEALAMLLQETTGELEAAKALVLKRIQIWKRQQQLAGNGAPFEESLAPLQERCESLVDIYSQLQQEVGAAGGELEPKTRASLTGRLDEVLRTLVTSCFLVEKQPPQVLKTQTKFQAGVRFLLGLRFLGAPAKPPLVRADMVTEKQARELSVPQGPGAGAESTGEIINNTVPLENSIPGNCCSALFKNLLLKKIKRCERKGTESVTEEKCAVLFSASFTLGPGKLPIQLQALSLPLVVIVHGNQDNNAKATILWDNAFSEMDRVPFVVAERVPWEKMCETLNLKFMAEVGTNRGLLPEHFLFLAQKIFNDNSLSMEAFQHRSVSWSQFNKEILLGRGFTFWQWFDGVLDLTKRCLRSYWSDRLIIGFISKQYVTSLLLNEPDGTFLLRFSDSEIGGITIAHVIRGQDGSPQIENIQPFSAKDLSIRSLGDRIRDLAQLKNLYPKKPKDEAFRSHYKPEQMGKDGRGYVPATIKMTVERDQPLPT
The assay is described as follows: STAT6 Fluorescence Polarization (FP) Assay. The settings on record: STAT6 (W123-T658) 250 nM, probe 5-FAM-Ap[…]-NH2 2 nM, 45-minute incubation; read-out: STAT6 (FP assay IC50 class). The assay is classed as binding. The procedure, abridged: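 Recombinant STAT6 (W123-T658) at 250 nM mixed with 2 nM 5-FAM phosphotyrosine peptide probe in HEPES pH 7.4 buffer with DTT, 1% DMSO final, added to serially diluted compounds. FP (mP) read after 45 min at room temperature; IC50 by nonlinear regression vs log concentration.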

The source of these data is patent publication US20250215029A1 (Recludix Pharma, Inc., priority 2022, published 2025).

pIC50: −log10 of the molar value.

T1 sequence (P40763 127-722): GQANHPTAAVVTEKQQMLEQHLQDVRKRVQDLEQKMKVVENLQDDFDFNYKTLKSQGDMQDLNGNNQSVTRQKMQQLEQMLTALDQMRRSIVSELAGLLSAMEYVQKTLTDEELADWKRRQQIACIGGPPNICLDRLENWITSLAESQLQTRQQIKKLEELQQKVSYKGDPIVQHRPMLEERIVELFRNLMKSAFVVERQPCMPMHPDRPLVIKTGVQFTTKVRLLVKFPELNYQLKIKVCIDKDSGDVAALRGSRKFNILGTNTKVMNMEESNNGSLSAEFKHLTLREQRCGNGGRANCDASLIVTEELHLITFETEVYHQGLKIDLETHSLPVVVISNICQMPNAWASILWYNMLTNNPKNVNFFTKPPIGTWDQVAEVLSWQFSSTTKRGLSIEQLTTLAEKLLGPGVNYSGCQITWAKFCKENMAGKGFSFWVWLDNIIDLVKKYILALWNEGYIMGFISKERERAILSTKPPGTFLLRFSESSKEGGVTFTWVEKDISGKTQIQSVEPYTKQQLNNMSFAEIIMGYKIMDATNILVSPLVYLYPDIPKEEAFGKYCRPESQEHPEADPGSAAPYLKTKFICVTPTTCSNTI

In general, pIC50 refers to −log10 of the IC50, conventionally taken in molar units. Take `O=C(N[C@H]1CCCC[C@H]2CC[C@@H](C(=O)N3C(=O)N(c4cccnc4)C(=O)C34CC4)N2C1=O)c1cc2cc(C(F)P(=O)(O)O)ccc2s1` (stereo partly drawn) [Compound 900, ((2-(((3S,6S,10aS)-3-(5,7-dioxo-6-(pyridin-3-yl)-4,6-diazaspiro[2.4]heptane-4-carbonyl)-5-oxodecahydropyrrolo [1,2-a]azocin-6-yl)carbamoyl)benzo [b]thiophen-5-yl)fluoromethyl) phosphonic acid]: the pIC50 in assay [1] was 5.00 to 6.00; in assay [2], ≥ 6.52.
The like results for `Cn1ncc(C2CCN(C(=O)[C@@H]3CC[C@@H]4CCCC[C@H](NC(=O)c5ccc6ccc(C(F)P(=O)(O)O)cc6c5)C(=O)N43)C2)cc1=O` (stereo partly drawn) [Compound 902, (fluoro(7-(((3S,6S,10aS)-3-(3-(1-methyl-6-oxo-1,6-dihydropyridazin-4-yl)pyrrolidine-1-carbonyl)-5-oxodecahydropyrrolo [1,2-a]azocin-6-yl)carbamoyl)naphthalen-2-yl)methyl) phosphonic acid] were, in that order, 5.00 to 6.00 and 4.52 to 5.52.
The matching figures for `Cn1ccc(C2(F)CCN(C(=O)[C@@H]3CC[C@@H]4CCCC[C@H](NC(=O)c5ccc6ccc(C(F)P(=O)(O)O)cc6c5)C(=O)N43)C2)cc1=O` (stereo partly drawn) [Compound 903, (fluoro(7-(((3S,6S,10aS)-3-(3-fluoro-3-(1-methyl-2-oxo-1,2-dihydropyridin-4-yl)pyrrolidine-1-carbonyl)-5-oxodecahydropyrrolo [1,2-a]azocin-6-yl)carbamoyl)naphthalen-2-yl)methyl) phosphonic acid]: 5.00 to 6.00 and 5.52 to 6.52.
The matching figures for `O=C(N[C@H]1CCC[C@H]2CC[C@@H](C(=O)N3CC(c4cccnc4)CC34CC4)N2C1=O)c1ccc2ccc(C(F)P(=O)(O)O)cc2c1` (stereo partly drawn) [Compound 904, (fluoro(7-(((3S,6S,9aS)-5-oxo-3-(6-(pyridin-3-yl)-4-azaspiro[2.4]heptane-4-carbonyl)octahydro-1H-pyrrolo[1,2-a]azepin-6-yl)carbamoyl)naphthalen-2-yl)methyl) phosphonic acid]: 5.00 to 6.00 and 5.52 to 6.52.
As for `O=C(N[C@H]1CCCC[C@H]2CC[C@@H](C(=O)N3CCC(c4ccn(C5CC5)c(=O)c4)C3)N2C1=O)c1ccc2ccc(C(F)P(=O)(O)O)cc2c1` (stereo partly drawn) [Compound 906, ((7-(((3S,6S,10aS)-3-(3-(1-cyclopropyl-2-oxo-1,2-dihydropyridin-4-yl)pyrrolidine-1-carbonyl)-5-oxodecahydropyrrolo[1,2-a]azocin-6-yl)carbamoyl)naphthalen-2-yl)fluoromethyl) phosphonic acid], the pIC50 is 5.00 to 6.00 in assay [1] and 5.52 to 6.52 in assay [2].
In the case of `O=C(N[C@H]1CCC[C@H]2CC[C@@H](C(=O)N3CC(c4cccnc4)CC34CC4)N2C1=O)c1cc2cc(C(F)P(=O)(O)O)ccc2s1` (stereo partly drawn) [Compound 907, (fluoro(2-(((3S,6S,9aS)-5-oxo-3-(6-(pyridin-3-yl)-4-azaspiro[2.4]heptane-4-carbonyl)octahydro-1H-pyrrolo[1,2-a]azepin-6-yl)carbamoyl)benzo [b]thiophen-5-yl)methyl) phosphonic acid], the pIC50 in assay [1] is 5.00 to 6.00; in assay [2], ≥ 6.52.
The like results for `O=C(N[C@H]1CCCC[C@H]2CC[C@@H](C(=O)N3CC(c4cccnc4)CC34CC4)N2C1=O)c1cc2cc(C(F)P(=O)(O)O)ccc2s1` (stereo partly drawn) [Compound 912, (fluoro(2-(((3S,6S,10aS)-5-oxo-3-(6-(pyridin-3-yl)-4-azaspiro[2.4]heptane-4-carbonyl)decahydropyrrolo[1,2-a]azocin-6-yl)carbamoyl)benzo [b]thiophen-5-yl)methyl) phosphonic acid] were, in that order, 5.00 to 6.00 and ≥ 6.52.
The like results for `Cn1ncc(C2CCN(C(=O)[C@@H]3CC[C@@H]4CCCC[C@H](NC(=O)c5cc6cc(C(F)P(=O)(O)O)ccc6s5)C(=O)N43)C2)cc1=O` (stereo partly drawn) [Compound 913, (fluoro(2-(((3S,6S,10aS)-3-(3-(1-methyl-6-oxo-1,6-dihydropyridazin-4-yl)pyrrolidine-1-carbonyl)-5-oxodecahydropyrrolo [1,2-a]azocin-6-yl)carbamoyl)benzo [b]thiophen-5-yl)methyl) phosphonic acid] were, in that order, 5.00 to 6.00 and 5.52 to 6.52.
The matching figures for `Cn1ccc(C2(O)CCN(C(=O)[C@@H]3CC[C@@H]4CCCC[C@H](NC(=O)c5cc6cc(C(F)P(=O)(O)O)ccc6s5)C(=O)N43)C2)cc1=O` (stereo partly drawn) [Compound 914, (fluoro(2-(((3S,6S,10aS)-3-(3-hydroxy-3-(1-methyl-2-oxo-1,2-dihydropyridin-4-yl)pyrrolidine-1-carbonyl)-5-oxodecahydropyrrolo [1,2-a]azocin-6-yl)carbamoyl)benzo [b]thiophen-5-yl)methyl) phosphonic acid]: 6.00 to 7.00 and 5.52 to 6.52.
Consider `O=C(N[C@H]1CCC[C@H]2CC[C@@H](C(=O)N3C(=O)N(c4cccnc4)C(=O)C34CC4)N2C1=O)c1cc2cc([C@H](F)P(=O)(O)O)ccc2s1` [Compound 915, ((R)-(2-(((3S,6S,9aS)-3-(5,7-dioxo-6-(pyridin-3-yl)-4,6-diazaspiro[2.4]heptane-4-carbonyl)-5-oxooctahydro-1H-pyrrolo[1,2-a]azepin-6-yl)carbamoyl)benzo [b]thiophen-5-yl)fluoromethyl) phosphonic acid], for which the pIC50 was 5.00 to 6.00 in assay [1] and ≥ 6.52 in assay [2].
The matching figures for `N#Cc1cc(C2CN(C(=O)[C@@H]3CC[C@@H]4CCC[C@H](NC(=O)c5cc6cc(C(F)P(=O)(O)O)ccc6s5)C(=O)N43)C2)ccn1` (stereo partly drawn) [Compound 918, ((2-(((3S,6S,9aS)-3-(3-(2-cyanopyridin-4-yl)azetidine-1-carbonyl)-5-oxooctahydro-1H-pyrrolo[1,2-a]azepin-6-yl)carbamoyl)benzo [b]thiophen-5-yl)fluoromethyl) phosphonic acid]: > 7.00 and 4.52 to 5.52.
As to `N#C[C@H]1[C@H](c2ccccc2)CN(C(=O)[C@@H]2CC[C@@H]3CCC[C@H](NC(=O)c4cc5cc(CP(=O)(O)O)ccc5s4)C(=O)N32)C12CC2` [Compound 922, ((2-(((3S,6S,9aS)-3-((6R,7S)-7-cyano-6-phenyl-4-azaspiro[2.4]heptane-4-carbonyl)-5-oxooctahydro-1H-pyrrolo[1,2-a]azepin-6-yl)carbamoyl)benzo [b]thiophen-5-yl)methyl) phosphonic acid], the values for the pIC50 in assay [1] and in assay [2] were 5.00 to 6.00 and 5.52 to 6.52, respectively.
The like results for `COc1c(C2CN(C(=O)[C@@H]3CC[C@@H]4CCC[C@H](NC(=O)c5cc6cc(C(F)P(=O)(O)O)ccc6s5)C(=O)N43)C2)ccnc1F` (stereo partly drawn) [Compound 925, (fluoro(2-(((3S,6S,9aS)-3-(3-(2-fluoro-3-methoxypyridin-4-yl)azetidine-1-carbonyl)-5-oxooctahydro-1H-pyrrolo[1,2-a]azepin-6-yl)carbamoyl)benzo [b]thiophen-5-yl)methyl) phosphonic acid] were, in that order, > 7.00 and 4.52 to 5.52.
As for `COC[C@@H]1CCN1c1ccncc1C1CN(C(=O)[C@@H]2CC[C@@H]3CCC[C@H](NC(=O)c4cc5cc([C@@H](F)P(=O)(O)O)ccc5s4)C(=O)N32)C1` [Compound 926, ((S)-fluoro(2-(((3S,6S,9aS)-3-(3-(4-((S)-2-(methoxymethyl)azetidin-1-yl)pyridin-3-yl)azetidine-1-carbonyl)-5-oxooctahydro-1H-pyrrolo[1,2-a]azepin-6-yl)carbamoyl)benzo [b]thiophen-5-yl)methyl) phosphonic acid], the pIC50 in assay [1] is > 7.00; in assay [2], 4.52 to 5.52.
